For eleven compounds, GI50 and TGI results are on record in PubChem BioAssay (NCI).

Among the test systems are UACC-62 melanoma; HOP-62 NSCLC; UACC-257 melanoma; ACHN renal; SK-OV-3 ovarian; 786-0 renal; HS 578T breast.
Holding throughout (experiment): NCI tumour cell line growth inhibition, 48 h

Where “and” joins values, the source holds several entries; their conditions need not be identical. Equal values may be shown once.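 Each compound was tested at five concentrations against cells in 96-well plates for 48 hours. GI50 marks 50% less growth. TGI: total growth inhibition.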

Consider `CC1(C)N=C(N)N=C(N)N1c1ccc(CCc2ccc(Cl)cc2S(=O)(=O)F)c(Cl)c1`, for which the GI50 in the assay with UACC-62 melanoma is 4.57 µM; in the assay on HOP-62 NSCLC it was 7 µM; in the assay with UACC-257 melanoma, 9.6 µM; in the assay with ACHN renal it was 44.6 µM; in the assay with SK-OV-3 ovarian, 19.1 µM; in the assay with 786-0 renal, 5.21 µM. Moreover, the GI50 with HS 578T breast was 11.1 µM. Moreover, the TGI was 31.5 µM in the assay on UACC-62 melanoma; 23 µM with HOP-62 NSCLC; 27.5 µM with UACC-257 melanoma; above 100 µM with ACHN renal; above 100 µM in the assay on SK-OV-3 ovarian; above 100 µM in the assay with 786-0 renal. Also, the TGI in the assay on HS 578T breast came to 41.3 µM.

Regarding `c1ccc(Nn2c(CCCCCCCCc3nnc(COc4ccccc4)n3Nc3ccccc3)nnc2COc2ccccc2)cc1`, the GI50 with UACC-62 melanoma was 1.28 µM; in the assay with ACHN renal, 2.89 µM and 5.83 µM; with SK-OV-3 ovarian it was above 300 µM; in the assay on 786-0 renal it was 29 µM and 36.3 µM; with HS 578T breast, 35.5 µM. In addition, the TGI was > 40.8 µM and 68 µM in the assay with UACC-62 melanoma; above 300 µM in the assay with HOP-62 NSCLC; above 86.5 µM in the assay with UACC-257 melanoma; above 300 µM in the assay with ACHN renal; above 300 µM in the assay with SK-OV-3 ovarian; above 300 µM with 786-0 renal. The compound also registered a TGI in the assay with HS 578T breast above 300 µM.

With `Oc1ccc2ccccc2c1C1NN=C(c2ccccc2)S1` (stereo not drawn), the GI50 with UACC-62 melanoma is 0.362 µM; in the assay with HOP-62 NSCLC, 0.454 µM; with UACC-257 melanoma, 0.561 µM; in the assay on ACHN renal, 0.343 µM; with SK-OV-3 ovarian it was 0.519 µM; with 786-0 renal, 0.424 µM. Also, in the assay on HS 578T breast, the GI50 is 2.41 µM. The TGI in the assay on UACC-62 melanoma is 6.3 µM; in the assay with HOP-62 NSCLC, 31.7 µM; with UACC-257 melanoma, 12 µM; in the assay with ACHN renal, above 40 µM; in the assay with SK-OV-3 ovarian, 20.5 µM; with 786-0 renal, above 34.6 µM. The same compound had a TGI in the assay with HS 578T breast of 44.4 µM.

On to `COc1ccc2c(c1)c1nc3cc(C)c(C)cc3nc1n2CCN(C)C`, for which the GI50 was 0.884 µM with UACC-62 melanoma; 0.899 µM in the assay on HOP-62 NSCLC; 1.26 µM in the assay on UACC-257 melanoma; 0.375 µM with ACHN renal; 1.5 µM in the assay with SK-OV-3 ovarian; 1.02 µM in the assay with 786-0 renal. In addition, the GI50 with HS 578T breast was 1.77 µM. Besides, the TGI was found to be 2.48 µM with UACC-62 melanoma; 3.37 µM in the assay on HOP-62 NSCLC; 3.17 µM in the assay on UACC-257 melanoma; 1.48 µM with ACHN renal; 3.48 µM in the assay with SK-OV-3 ovarian; 2.73 µM with 786-0 renal. For the same compound, the TGI with HS 578T breast is 6.23 µM.

Take `N#Cc1ccc(C2C3=C(CCCC3=O)OC3=C2C(=O)c2ccccc2C3=O)cc1` (stereo not drawn): the GI50 was 2.06 µM in the assay with UACC-62 melanoma; 1.95 µM in the assay on HOP-62 NSCLC; 1.55 µM with UACC-257 melanoma; 1.55 µM in the assay with ACHN renal; 3.17 µM in the assay with SK-OV-3 ovarian; 1.87 µM with 786-0 renal. Moreover, the GI50 with HS 578T breast is 3.21 µM. In addition, the TGI in the assay with UACC-62 melanoma was 4.02 µM; with HOP-62 NSCLC, 3.78 µM; in the assay with UACC-257 melanoma it was 2.94 µM; in the assay with ACHN renal it was 2.89 µM; with SK-OV-3 ovarian it was 9.6 µM; in the assay on 786-0 renal, 3.76 µM. This compound also yielded a TGI with HS 578T breast of 9.37 µM.

For the compound `Clc1ccc(C(c2ccc(Cl)cc2)N2CCNCC2)cc1`, the TGI was 3.55 µM in the assay on UACC-62 melanoma; 3.71 µM in the assay on HOP-62 NSCLC; 4.62 µM with UACC-257 melanoma; 5.74 µM in the assay on ACHN renal; above 44.3 µM in the assay with SK-OV-3 ovarian; 3.17 µM in the assay on 786-0 renal. The TGI with HS 578T breast was 7.89 µM.

As to `N#C/C(=C\Nc1ccccn1)C(=O)c1ccco1`, the TGI in the assay on UACC-62 melanoma, in the assay on HOP-62 NSCLC, in the assay with UACC-257 melanoma, in the assay on ACHN renal, in the assay with SK-OV-3 ovarian and with 786-0 renal was above 100 µM throughout. Also, in the assay with HS 578T breast, the TGI was above 100 µM.

Regarding `COc1cc2c(cc1OC)-c1ccc3cc4c(cc3c1N(CCN(C)C)C2)OCO4`, the GI50 in the assay with UACC-62 melanoma is 0.403 µM; with HOP-62 NSCLC, 0.373 µM; in the assay with UACC-257 melanoma, 2.43 µM; in the assay on ACHN renal it was 0.588 µM; with SK-OV-3 ovarian it was 0.518 µM; with 786-0 renal, 0.442 µM. The GI50 in the assay with HS 578T breast was 1.68 µM. For the same compound, the TGI in the assay with UACC-62 melanoma was 5.4 µM; with HOP-62 NSCLC it was 3.97 µM; in the assay with UACC-257 melanoma, 16.5 µM; in the assay on ACHN renal, 3.1 µM; in the assay on SK-OV-3 ovarian, 3.2 µM; in the assay with 786-0 renal, 1.99 µM. Besides, the TGI in the assay with HS 578T breast came out at 13.7 µM.

In the case of `C[C@@H](NC(=O)[C@@H](CC(=O)N1CCC(N2CCCCC2)CC1)N1C(=O)[C@@H](N2C(=O)OC[C@@H]2c2ccccc2)[C@H]1/C=C/c1cccc(Cl)c1)c1ccccc1`, the GI50 was 1.95 µM with UACC-62 melanoma; 4.16 µM in the assay on HOP-62 NSCLC; 1.93 µM in the assay on UACC-257 melanoma; 2.31 µM in the assay with ACHN renal; 12.9 µM with SK-OV-3 ovarian; 1.88 µM with 786-0 renal. For the same compound, the GI50 in the assay on HS 578T breast is 2.77 µM. The TGI turned out to be 3.88 µM with UACC-62 melanoma; 18.4 µM with HOP-62 NSCLC; 3.84 µM in the assay on UACC-257 melanoma; 6.22 µM with ACHN renal; 27.5 µM in the assay on SK-OV-3 ovarian; 3.95 µM with 786-0 renal. In the assay on HS 578T breast, this compound had a TGI of 7.16 µM.

As for `COc1ccc2c3c(c4ccccc4cc13)C(=O)N(CCN(C)CCN)C2=O`, the GI50 was 0.077 µM with UACC-62 melanoma; 0.0267 µM in the assay with HOP-62 NSCLC; 0.483 µM with UACC-257 melanoma; 0.0187 µM in the assay with ACHN renal; 0.0692 µM in the assay on SK-OV-3 ovarian; 0.0388 µM with 786-0 renal. Moreover, the GI50 with HS 578T breast was 1.19 µM. In addition, the TGI in the assay on UACC-62 melanoma stood at 1.56 µM; in the assay with HOP-62 NSCLC it was 0.264 µM; in the assay with UACC-257 melanoma, 17.4 µM; in the assay on ACHN renal it was 0.17 µM; in the assay with SK-OV-3 ovarian it was 0.806 µM; with 786-0 renal, 0.7 µM. Further, in the assay with HS 578T breast, the TGI turned out to be 3.67 µM.

Consider `COc1ccc([I+]c2ccccc2)cc1`, for which the GI50 was 37.2 µM in the assay with UACC-62 melanoma; 2.91 µM in the assay with HOP-62 NSCLC; 8.81 µM with UACC-257 melanoma; 42.7 µM with ACHN renal; 50.2 µM in the assay with SK-OV-3 ovarian; 16.4 µM in the assay on 786-0 renal. In addition, the GI50 in the assay on HS 578T breast was 15.9 µM. Besides, the TGI is above 100 µM in the assay with UACC-62 melanoma; 79.2 µM with HOP-62 NSCLC; above 100 µM in the assay with UACC-257 melanoma; above 100 µM with ACHN renal; above 100 µM in the assay with SK-OV-3 ovarian; above 100 µM in the assay with 786-0 renal. Further, in the assay on HS 578T breast, the TGI is above 100 µM.
